The text below walks through data of patent US7868006B2, “Heterocyclic substituted piperazines with CXCR3 antagonist activity” (Schering Corporation, priority 2005, dated 2011).

This experiment has as its target T1, human CXCR3 (N-delta 4) (Homo sapiens, UniProt P49682).
T1 construct: CD8 leader (N); Flag tag (N); expressed in transfected cells; host or cells: mouse pro-B Ba/F3 cells, stably transfected with pME18Sneo-hCXCR3 (N-delta 4); membrane preparation
T1 sequence (P49682 5-368 limits assumed): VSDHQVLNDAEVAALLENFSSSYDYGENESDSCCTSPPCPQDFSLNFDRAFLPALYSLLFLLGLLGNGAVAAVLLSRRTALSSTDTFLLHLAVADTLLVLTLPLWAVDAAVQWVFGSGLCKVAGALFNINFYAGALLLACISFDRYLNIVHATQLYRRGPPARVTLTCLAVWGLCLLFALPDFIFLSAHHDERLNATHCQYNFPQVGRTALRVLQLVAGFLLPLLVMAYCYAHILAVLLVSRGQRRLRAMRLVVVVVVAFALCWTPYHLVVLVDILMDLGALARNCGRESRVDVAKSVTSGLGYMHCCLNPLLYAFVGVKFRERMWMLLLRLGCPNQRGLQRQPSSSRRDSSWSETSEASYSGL
The experiment is described as follows: Human CXCR3 (N-delta 4) Scintillation Proximity Assay (SPA), [125I] IP-10 binding. Conditions: IC50 rating; Ba/F3-hCXCR3 (N-delta 4) membranes, 25 pM [125I] IP-10; read-out: IC50. The method in brief: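 Membranes from mouse Ba/F3 pro-B cells stably expressing Flag-tagged human CXCR3 (N-delta 4), 2 μg per point, bound to WGA SPA beads. Compound titrations competed with 25 pM [125I] IP-10 for 3 hr at room temperature in HEPES buffer with Ca2+, Mg2+, NaCl, 1.0% BSA; bead-bound radioactivity counted, […] values reported.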
A word on the IC50: it is the point on the concentration scale where inhibition reaches its midpoint. As for `CC[C@H]1CN(c2ncc(-c3nnc(NC4(C)CC4)o3)nc2C)[C@H](C)CN1C1CCN(C(=O)c2ccc(Cl)cc2)CC1` [Compound 180], the IC50 was under 25 nM.
As for `CCNc1nnc(-c2cnc(N3CCN(C4CCN(C(=O)c5ccc(Cl)nc5N)CC4)[C@@H](CC)C3)c(C3CC3)n2)o1` [Compound 181], the figure is 25 to 100 nM; as for `CCNc1nnc(-c2cnc(N3CCN(C4CCN(C(C(=O)OC)c5ccc(Cl)cc5)CC4)[C@@H](CC)C3)c(C)n2)o1` (some centres unmarked) [Compound 182], under 25 nM.
As for `CCNc1nnc(-c2cnc(N3CCN(C4CCN(C(=O)c5ccc(C(F)(F)F)cc5N)CC4)[C@@H](CC)C3)c(C)n2)o1` [Compound 183], the figure is under 25 nM.
In the case of `CCNc1nnc(-c2cnc(N3CCN(C4CCN(C(=O)c5ccc(C(F)(F)F)nc5N)CC4)[C@@H](CC)C3)c(C)n2)o1` [Compound 184] it was under 25 nM.
With `CCNc1nnc(-c2cnc(N3C[C@H](CC)N(C4CCN(Cc5ccc(OC(F)(F)F)cc5)CC4)C[C@H]3C)c(C)n2)o1` [Compound 185], the IC50 was under 25 nM.
In the case of `CC[C@H]1CN(c2ncc(-c3nnc(NC4(C)CC4)o3)nc2C)[C@H](C)CN1C1CCN(C(=O)c2ccc(Cl)nc2N)CC1` [Compound 186] it was under 25 nM.
In the case of `CCNc1nnc(-c2cnc(N3CCN(C4CCN(C(=O)c5cc(F)c(Cl)cc5F)CC4)[C@@H](CC)C3)c(Cl)n2)o1` [Compound 187] it was under 25 nM.
As for `CCNc1nnc(-c2cnc(N3C[C@H](CC)N(C4CCN(C(C(=O)OC)c5ccc(F)c(F)c5)CC4)C[C@H]3C)c(C)n2)o1` (some centres unmarked) [Compound 188], the IC50 was under 25 nM.
In the case of `CCNc1nnc(-c2cnc(N3C[C@H](CC)N(C4CCN(C(=O)c5ccc(C(F)(F)F)nc5N)CC4)C[C@H]3C)c(C)n2)o1` [Compound 189] it was under 25 nM.
Turning to `CC[C@H]1CN(c2nc(N)c(-c3nnc(NC)o3)nc2Cl)CCN1C1CCN(C(C(=O)OC)c2ccc(Cl)cc2)CC1` (some centres unmarked) [Compound 190], the half-inhibitory concentration (IC50) is under 25 nM.
In the case of `CCNc1nnc(-c2cnc(N3C[C@H](CC)N(C4CCN(C(=O)c5ccc(Cl)cc5)CC4)C[C@H]3C)c(C(F)(F)F)n2)o1` [Compound 191] it was under 25 nM; in that of `CCOC(=O)CNc1nnc(-c2nc(C)c(N3CCN(C4CCN(C(=O)c5ccc(Cl)nc5N)CC4)[C@@H](CC)C3)nc2N)o1` [Compound 192], under 25 nM.
As for `CC[C@H]1CN(c2nc(N)c(-c3nnc(NCC(=O)NC)o3)nc2C)CCN1C1CCN(C(=O)c2ccc(Cl)nc2N)CC1` [Compound 193], the figure is under 25 nM; as for `CC[C@H]1CN(c2nc(N)c(-c3nnc(NCC(=O)NC4CC4)o3)nc2C)CCN1C1CCN(C(=O)c2ccc(Cl)nc2N)CC1` [Compound 194], under 25 nM.
In the case of `CCOC(=O)CNc1nnc(-c2cnc(N3CCN(C4CCN(Cc5ccc(F)c(F)c5COCc5ccccc5)CC4)[C@@H](CC)C3)c(C)n2)o1` [Compound 195] it was 25 to 100 nM.
As to `CC[C@H]1CN(c2ncc(-c3nnc(N(CC)S(=O)(=O)c4ccc(C)cc4)o3)nc2C)C(C)CN1C1CCN(C(=O)c2ccc(Cl)cc2)CC1` (some centres unmarked) [Compound 196], the half-maximal inhibitory concentration (IC50) lay within 25 to 100 nM.
